A short description of data set [1]: Oral administration of oxycodone prodrugs co-dosed with trypsin inhibitor Compound 109 to rats. It counts as in vivo, rat.
A short description of data set [2]: Oral administration of hydrocodone prodrugs KC-40 or KC-50 co-dosed with Compound 109 to rats. Conditions: for Cmax: HC Cmax ± sd.
Data set [3] can be described thus: Spacer leaving group cyclization release rate in pH 7.4 phosphate buffer.
A short description of data set [4]: Pharmacokinetics of hydrocodone prodrugs following PO administration to dogs, with or without Compound 109.
The nature of data set [5]: Pharmacokinetics following PO administration of increasing doses of Compound KC-31 to rats. Particulars: male, Sprague Dawley, rat, plasma, 10 mg/kg.
Data set [6] is described as follows: Pharmacokinetics following PO administration of Compound KC-55 to rats. Particulars: oxycodone in rat plasma, oxycodone 10 mg/kg (28 μmol/kg).
Data set [7] can be described thus: Oral administration of Compound KC-55 co-dosed with Compound 109 to rats. Particulars: male, Sprague Dawley, rat, plasma, 36 umol/kg.

Each structure is given as a SMILES string.

This note sets out measurements from US8685916B2, “Opioid prodrugs with heterocyclic linkers” (Signature Therapeutics, Inc., priority 2011, dated 2014).

`N=C(N)c1ccc2cc(OC(=O)c3ccc(N=C(N)N)cc3)ccc2c1` [Compound 109, 6-carbamimidoylnaphthalen-2-yl 4-(diaminomethyleneamino)benzoate]: the “effect of co-dosed trypsin inhibitor on release of oxycodone by prodrugs KC-12 and KC-17” value in data set [1] is on record as “ability to attenuate release of oxycodone”. Further, the “effect of co-dosed trypsin inhibitor on release of hydrocodone by prodrugs KC-40 and KC-50” value in data set [2] (rats, PO) is “ability to attenuate release of hydrocodone”.
`COc1ccc2c3c1O[C@H]1C(OC(=O)N4CCCC[C@@H]4CN)=CC[C@@]4(O)[C@@H](C2)N(C)CC[C@]314` [Compound KC-18, N-(oxycodone-6-enol-carbonyl)-R-(piperidine-2-methylamine)] showed a half-life at 2.18 mM in data set [3] of 0.875 ± 0.016 h.
Consider `COc1ccc2c3c1O[C@H]1C(=O)CC[C@H]4[C@@H](C2)N(C)CC[C@]314` [Hydrocodone, hydrocodone], for which the time to peak (Tmax) in data set [2] (Sprague Dawley, rat, plasma, po, […]) worked out at 1.06 h; in data set [5], 1.06 ± 0.72 h. Moreover, the maximum concentration (Cmax) in data set [2] (Sprague Dawley, rat, plasma, po, […], Table 11A: hydrocodone values in Table 10 adjusted to provide expected values at a […] (62 μmol/kg) dose, rat) was 11.9 ng/mL; in data set [2] (Sprague Dawley, rat, plasma, po, […], Table 11B: hydrocodone values in Table 10 adjusted to provide expected values at a 62 μmol/kg ([…]) dose, rat), 12.4 ng/mL; in data set [5], 5.49 ± 1.7 ng/mL. In addition, the “Tmax ± sd” value in data set [2] (Table 11B: hydrocodone values in Table 10 adjusted to provide expected values at a 62 μmol/kg ([…]) dose, rat) is reported as 1.06 h. In addition, the “HC Cmax ± sd” value in data set [4] (Table 12: dog, […] values adjusted to expected value for a 2 μmol/kg dose (4 dose equivalents)) is listed as 56.0 n/a^ ng/mL; in data set [4] (Table 12: dog, […] values adjusted to expected value for a 5 μmol/kg dose (10 dose equiv)) it was 140 n/a^ ng/mL; in data set [4] (Table 13: dog plasma, PO, hydrocodone […] (0.5 μmol/kg)), 14.0 ± 4.3^ ng/mL; in data set [4] (Table 13: dog, […] values adjusted to expected value for a 5 μmol/kg dose (10 dose equiv)) it was 140 n/a^ ng/mL.
On to `COc1ccc2c3c1O[C@H]1C(=O)CC[C@@]4(O)[C@@H](C2)N(C)CC[C@]314` [Oxycodone, oxycodone], for which the “OC Cmax ± sd” value in data set [6] is listed as 14.7 ± 6.5^ ng/mL. Further, the Cmax in data set [7] is 18.8 ng/mL.
